In patent US20220110916A1, “Antioxidant and Use Thereof” (Bioradical Research Institute Corp., priority 2019, published 2022):
Values belong to the molecule of their own block, whether it stands above or below them.

Experiments:
[1] = Storage stability in pH7.4-PBS or pure water at 37° C. protected from light, residual rate by HPLC; assay type: physicochemical; conditions: 200 μmol/l; for Residual rate (%) After 1 week / Residual rate (%) After 2 weeks: 37° C., protected from light; for Residual rate (%) Initial concentration: initial concentration (reference 100%)
Protocol: The storage stability of edaravone, EMPO, ED2AP, and BisEp-C3 of the following formula (A) were examined. Specifically, edaravone, EMPO, ED2AP, and BisEp-C3 were dissolved in pH7.4-PBS or pure water so as to have a final concentration of 200 μmol/l to prepare dissolved solutions of these compounds. When the compounds were difficult to be dissolved, they were dissolved in an ultrasonic cleaner with warm water at 40° C.
Under the measurement conditions for HPLC described below, the initial concentration was quantified, and then each solution was stored in an oven, which was protected from light, at 37° C., and quantified under the same measurement conditions after 1 week and 2 weeks, to determine residual rate (%) with the initial concentration (100%) being a reference.
Measurement conditions for HPLC
PDA detector (Format: SPD-M20A) HPLC Assay Conditions:
Column: Atlantis dC18 5 μm (250×4.6 mm I.D.; produced by Waters)
Column temperature: 45° C.
Detection method: UV (254 nm)
Eluate A: pH3 buffer solution (adjusted to pH3 by adding phosphoric acid to 0.05M KH2PO4 aqueous solution)/methanol=90/10

[2] = Water solubility noted at synthesis; assay type: physicochemical; conditions: crystal obtained in Example 1
Protocol: 3.58 g of 3-methyl-1-phenyl-5-pyrazolone (hereinafter, also referred to as “edaravone”), 2.59 g of malonaldehyde dianilide hydrochloride, and 20 ml of ethanol were added to a reactor and dissolved. To the obtained solution, 2.04 g of triethylamine and 0.4 ml of water were added and stirred for 1 hour at room temperature (about 25° C., hereinafter, the same applies). After the stirring, the resultant was further reacted for 1 hour at 50° C. After discharging the obtained reaction solution to 100 ml of 1N hydrochloric acid, the mixture was sufficiently stirred and the precipitate was filtered. The resulting cake was washed with water. The cake was added to 200 ml of an aqueous sodium hydroxide solution having a 1% by weight concentration and completely dissolved by heating with stirring. Next, the dissolved solution was stirred for 3 hours after cooling to room temperature. Then, the liquid containing the obtained precipitate was filtered, and then the cake was washed with water. […] Note that the melting point of ED2AP was 249° C., which was water-soluble.
3 ml of dimethylformamide was added to a reactor and the exterior of the reactor was cooled with ice water. 1.75 g of phosphorus oxychloride was slowly dropped into the reactor (Reaction Solution A). In another reactor, 1.78 g of edaravone was dissolved in 5 ml of dimethylformamide (Reaction Solution B). Under room temperature, the reaction solution B was slowly added to the reaction solution A, and the resulting mixture was allowed to react for 1 hour with the end of addition (Reaction Solution C) being a reference. In another reactor, 1.81 g of 3-methyl-1-phenyl-5-pyrazolone was added to 8 ml of chloroform and dissolved (Reaction Solution D). Under room temperature, the reaction solution C was slowly added to the reaction solution D, followed by stirring for 20 minutes and further stirring at 70° C. for 1 hour. To the resultant, 0.2 g of water was added and stirred for another 2 hours. The obtained reaction solution was discharged into 100 ml of water and extracted with a mixed solvent of toluene/ethyl acetate=1/1 (volume ratio). After condensation of the obtained extract, column purification was performed to obtain 2.92 g of yellow crystal of the compound of the formula (10) having the following physical properties.
1.00 g of edaravone, 0.72 g of paraformaldehyde, and 20 ml of formic acid were added to a reaction flask and stirred overnight for 20 hours at 70° C. The obtained reaction solution was discharged into 80 ml of water and extracted with a mixed solvent of toluene/ethyl acetate=1/1 (volume ratio). When the extract was condensed to about two-thirds, crystals were precipitated. Further, the resultant was cooled to room temperature, and sufficiently crystallized, and then filtered. The obtained cake was washed with toluene to obtain 0.88 g of pale yellow crystal of the compound of the formula (14) having the following physical properties.
In Example 1(1), synthesis was performed in the same manner as described above except that 3-methyl-1-ethyl-5-pyrazolone was used instead of edaravone to obtain red crystal of BisEp-C3 having the following physical properties. Note that BisEp-C3 was water-soluble.
In Example 1(2), synthesis was performed in the same manner as described above except that 3-methyl-1-ethyl-5-pyrazolone was used instead of edaravone to obtain yellow crystal of BisEp-C1 having the following physical properties. Note that BisEp-C1 was water-soluble.
In Example 1(3), synthesis was performed in the same manner as described above except that 3-methyl-1-ethyl-5-pyrazolone was used instead of edaravone, then the obtained reaction solution was condensed, and the resultant was subjected to column purification to obtain colorless crystal of BisEp-C1 (H2) having the following physical properties. Note that BisEp-C1 (H2) was water-soluble.

[3] = test system: neutrophils isolated from the peripheral blood of healthy individuals; test: Superoxide production amount of PMA-stimulated neutrophils, CLA chemiluminescence; assay type: cell-based, human; conditions: 0-200 μmol/l or 0-5000 μmol/l; PMA 100 ng/ml; control being 100; FIG. 2
Protocol: For examining the reactive oxygen-eliminating effect of the antioxidant of the present invention, the superoxide produced by the neutrophils when the neutrophils isolated from the peripheral blood of healthy individuals were stimulated with PMA (phorbor-12-myristate-13-acetate) was used. The superoxide production amount was measured by chemiluminescence using CLA (2-methyl-6-pjenyl-3, 7-dihydroimidazo[1,2-a]pyrazine-3-one).
(§1) First, ED2AP, BisEp-C3, edaravone, BisEp-C1, or BisEp-C1 (H2) was added to a neutrophil of 4×10^5 cells per sample so as to achieve a predetermined concentration (0, 12.5, 25, 50, 100, or 200 μmol/l, or 0, 125, 250, 500, 1250, 2500, or 5000 μmol/l) with 5 μmol of CLA, and then the cell suspension was seeded in flat-bottomed 96-well plates. The volume of the suspension was 200 μl/well, and phenol red free Ca+, Mg+ HBSS was used as the solution. In addition, the neutrophil was stimulated by adding PMA so as to achieve a concentration of 100 ng/ml. After the stimulation, a plate reader (Envision 2104 Multilabel Reader, produced by Perkin Elmer Co., Ltd.) was used to measure the chemiluminescence value over time for 30 minutes with the PMA stimulation time being a reference. The measurement interval was 30 seconds. The sum of the chemiluminescence values obtained every 30 seconds for 30 minutes was taken as the superoxide production amount. In addition, as a control, the superoxide production amount was measured in the same manner except that each compound was not added. The relative value of the superoxide production amount when each compound was added was calculated with the superoxide production amount of the control being 100.

rat neuroid cells B50 [4] = test: Toxicity evaluation on byproducts after reaction with singlet oxygen, cell viability; assay type: cell-based; conditions: 50, 100, or 200 μmol/l reacted with RB + G-LED 525 nm in cell-free system; FIG. 6
Protocol: In a cell-free system, the RB was added to media (50% FCS-containing RPMI-1640 media) containing edaravone, ED2AP, and BisEp-C3 having a predetermined concentration (50, 100, or 200 μmol/l) and then irradiated with LED (G-LED) at 525 nm to generate singlet oxygen, whereby reacting each compound with singlet oxygen. The cell viability was measured in the same manner as in Example 7(1), except that the culture solution after the reaction was used as a medium of the neuroid cell B50. As a negative control (NC), the cell viability was measured in the same manner except that each compound and […] were not added in the cell-free system. Further, as a control (RB), the cell viability was measured in the same manner except that each compound was not added and only […] was added in the cell-free system.

rat neuroid cells B50 [5] = test: Toxicity evaluation, cell viability by Alamar Blue after 24 hours; assay type: cell-based; conditions: 12.5, 25, 50, 100, or 200 μmol/l, FIG. 5
Protocol: Rat neuroid cells B50 were seeded in 12-well plates and then cultured. Edaravone (RC), ED2AP, or BisEp-C3 was added to each well so as to achieve a predetermined concentration (12.5, 25, 50, 100, or 200 μmol/l), and then incubated for 24 hours at 37° C. and 5% CO2. Cell viability in each well after the culture was measured using Alamar Blue.

[6] = test system: neutrophils isolated from the peripheral blood of healthy individuals; test: Superoxide production amount of PMA-stimulated neutrophils with PBS solutions stored for 10 days vs immediately after preparation; assay type: cell-based, human; conditions: PBS solution stored for 10 days vs immediately after preparation; 0, 6.25, 12.5, 25, 50, 100 or 20 μmol/l; FIG. 4
Protocol: as §1
PBS solutions of ED2AP, BisEp-C3, and edaravone were prepared in the same manner as in Example 2 and stored for 10 days. The superoxide production amount was calculated in the same manner as in Example 4 except that the PBS solution after storage was added instead of ED2AP, BisEp-C3, edaravone, BisEp-C1 or BisEp-C1 (H2) so as to achieve a predetermined concentration (0, 6.25, 12.5, 25, 50, 100 or 20 μmol/l) of ED2AP, BisEp-C3 or edaravone. Further, PBS solutions of ED2AP, BisEp-C3, and edaravone were prepared in the same manner as in Example 2, and the superoxide production amount was calculated in the same manner except that the PBS solution immediately after preparation was used. Then, the relative value of the superoxide production amount of each sample was calculated with the superoxide production amount of the sample of 0 μmol/l being 100.

rat neuroid cells B50 [7] = test: Alleviation of singlet oxygen (Rose Bengal + G-LED) cytotoxicity, Alamar Blue fluorescence; assay type: cell-based; conditions: 200 nmol/l RB + G-LED 5 minutes
Protocol: Edaravone, ED2AP and BisEp-C3 were examined whether they had the function of alleviating neuronopathy. Specifically, singlet oxygen was generated by combining Rose Bengal (RB), which is a sensitizer, with green light (G-LED), and the function of alleviating the cytotoxicity of the generated singlet oxygen was examined with the cellular activity being an indicator.
First, rat neuroid cells B50 were cultured in 12-well dishes at 2×10^5 cells/well (medium: RPMI-1640 medium containing 5% FCS) overnight. After the culturing, the medium of each well was replaced with HBSS (1000 μl/well; phenol red free Ca+, Mg+) containing 200 nmol/l RB and edaravone, ED2AP, or BisEp-C3 having a predetermined concentration (0, 12.5, 25, 50, or 100 μmol/l). The dish was then irradiated with G-LED for 5 minutes to generate singlet oxygen. Thereafter, the medium of each well was replaced with 1000 μl of HBSS and Alamar Blue was added. The dish was then allowed to react for about 2 hours in an incubator at 37° C. and 5% CO2. After the reaction, fluorescence intensity (excitation wavelength: λ-560 nm, fluorescence wavelength: λ-595 nm) was measured with a plate reader (infinite200, Tecan Trading AG). In this experimental system, the higher the cellular activity, the more Alamar Blue is taken up and the higher the fluorescence intensity. As a control, fluorescence intensity was measured in the same manner except that sodium azide (Azide, NaN3) was added instead of the compounds so as to achieve a concentration of 4 mmol/l. As a negative control (NC), fluorescence intensity was measured in the same manner except that RB was not added. The relative value of the fluorescence intensity in the sample to which each compound was added was calculated with the fluorescence intensity of the negative control being 100.

SMILES: CCN1N=C(C)/C(=C/c2c(C)nn(CC)c2O)C1=O [BisEp-C1]
solubility in water [2]: water-soluble
relative value of the superoxide production amount [3]: suppressed the superoxide production amount in a concentration-dependent manner

SMILES: CCn1nc(C)c(Cc2c(C)nn(CC)c2O)c1O [BisEp-C1 (H2), 4,4′-methylenebis[1-ethyl-3-methyl-1H-pyrazol-5-ol]]
solubility in water [2]: water-soluble
relative value of the superoxide production amount [3]: suppressed the superoxide production amount in a concentration-dependent manner

SMILES: [N-]=[N+]=[N-] [sodium azide, reference compound]
relative value of the fluorescence intensity (rat neuroid cells B50 [7]; 4 mmol/l, negative control being 100, RB control 33.17): 80.81

Continued, in another order:

Residual rate (%) After 1 week ([1]; Pure water): 6.3%
Residual rate (%) After 2 weeks ([1]; Pure water): 1.4%
Residual rate (%) Initial concentration ([1]; Pure water): 100%
Residual rate (%) After 1 week ([1]; pH 7.4-PBS): 0.0%
Residual rate (%) After 2 weeks ([1]; pH 7.4-PBS): 0.0%
Residual rate (%) Initial concentration ([1]; pH 7.4-PBS): 100%
SMILES: CCN1N=C(C)CC1=O [EMPO, reference compound]

Residual rate (%) After 1 week ([1]; Pure water): 82.8%
Residual rate (%) After 2 weeks ([1]; Pure water): 80.4%
Residual rate (%) Initial concentration ([1]; Pure water): 100%
Residual rate (%) After 1 week ([1]; pH 7.4-PBS): 31.2%
Residual rate (%) After 2 weeks ([1]; pH 7.4-PBS): 0.2%
Residual rate (%) Initial concentration ([1]; pH 7.4-PBS): 100%
SMILES: CC1=NN(c2ccccc2)C(=O)C1 [Edaravone, 5-methyl-2-phenyl-2,4-dihydro-3H-pyrazol-3-one, reference compound]
cytotoxicity of the byproducts after reaction with singlet oxygen (cell viability) (rat neuroid cells B50 [4]): not cytotoxic at any concentration
cytotoxicity (cell viability) (rat neuroid cells B50 [5]): not cytotoxic at any concentration
superoxide-eliminating ability after storage [6]: remarkably lowered after storage for 10 days
recovery of the fluorescence intensity (cellular activity) (rat neuroid cells B50 [7]; 0, 12.5, 25, 50, or 100 μmol/l, FIG. 3): not recovered
relative value of the superoxide production amount [3]: suppressed the superoxide production amount in a concentration-dependent manner

solubility in water [2]: poorly soluble in water
SMILES: Cc1nn(-c2ccccc2)c(O)c1Cc1c(C)nn(-c2ccccc2)c1O [formula (14), 4,4′-methylenebis[3-methyl-1-phenyl-1H-pyrazol-5-ol]]

solubility in water [2]: poorly soluble in water
SMILES: CC1=NN(c2ccccc2)C(=O)/C1=C\c1c(C)nn(-c2ccccc2)c1O [formula (10), 2,4-dihydro-4-[(5-hydroxy-3-methyl-1-phenyl-1H-pyrazol-4-yl)methylene]-5-methyl-2-phenyl-3H-pyrazol-3-one]
